From the NIST ThermoML archive (doi:10.1016/j.fluid.2015.10.001)
Where “and” joins values, the source holds several entries; their conditions need not be identical. Equal entries are not always repeated.

Assays:
[1] = Molar enthalpy of transition or fusion; settings: Crystal; DSC
[2] = Crystal; for vapor or sublimation pressure: Transpiration method; for Normal melting temperature: DTA

O=C(O)c1ccc(I)cc1 [4-iodobenzoic acid]
Settings	Molar enthalpy of transition or fusion [kcal/mol]	Normal melting temperature [°C]
[1]	8.05	–
[2]	–	270.8

[2]
Settings	vapor or sublimation pressure [kPa]
388.9 K	0.00205
391.1 K	0.00244
403.3 K	0.00654
409.4 K	0.01081
415.3 K	0.01743
421.5 K	0.02673
424.5 K	0.03413
427.4 K	0.04118
433.5 K	0.06312

O=C(O)c1cccc(F)c1 [3-fluorobenzoic acid]
Settings	Molar enthalpy of transition or fusion [kcal/mol]	Normal melting temperature [°C]
[1]	4.42	–
[2]	–	122.8

[2]
Settings	vapor or sublimation pressure [kPa]
331.9 K	0.00407
334.9 K	0.00564
338 K	0.00734
342.1 K	0.01139
345 K	0.01472
347.1 K	0.01783
350.4 K	0.02353
353.3 K	0.03091
356.5 K	0.04119
359.5 K	0.0543
362.6 K	0.06845

O=C(O)c1cccc(I)c1 [3-iodobenzoic acid]
Settings	Molar enthalpy of transition or fusion [kcal/mol]	Normal melting temperature [°C]
[1]	6.62	–
[2]	–	185.8

[2]
Settings	vapor or sublimation pressure [kPa]
366.6 K	0.00121
370.4 K	0.00171
375.8 K	0.00281
380.8 K	0.00438
386 K	0.00688
389.1 K	0.00894
391.9 K	0.01174
395.1 K	0.01521
399.2 K	0.02068
404.1 K	0.03146
404.2 K	0.03145
409 K	0.04684
411.4 K	0.05339
414.2 K	0.06461
417.5 K	0.08451
422 K	0.1194

O=C(O)c1ccccc1F [2-fluorobenzoic acid]
Settings	Molar enthalpy of transition or fusion [kcal/mol]	Normal melting temperature [°C]
[1]	4.85	–
[2]	–	123.6

[2]
Settings	vapor or sublimation pressure [kPa]
333.9 K	0.00321
334.6 K	0.0035
335.9 K	0.00389
337 K	0.00451
338.9 K	0.00528
340.2 K	0.00614
342 K	0.00738
342.2 K	0.00734
345 K	0.0094
346.6 K	0.01115
348.3 K	0.0132
351.2 K	0.01709
352.4 K	0.01997
353.2 K	0.02087
354.2 K	0.02242
356.5 K	0.02903
358.2 K	0.03398
358.3 K	0.0322
360.5 K	0.03997
361.3 K	0.04428
363.4 K	0.05001
364.5 K	0.05529
367.2 K	0.07204

O=C(O)c1ccc(F)cc1 [4-fluorobenzoic acid]
Settings	Molar enthalpy of transition or fusion [kcal/mol]	Normal melting temperature [°C]
[1]	5.16	–
[2]	–	183.0

[2]
Settings	vapor or sublimation pressure [kPa]
343 K	0.00456
346.2 K	0.00612
349.3 K	0.00844
355.1 K	0.01384
356.5 K	0.01539
359.5 K	0.02097
363.7 K	0.02861
365.6 K	0.03441
366.9 K	0.03729
371.8 K	0.05523
375.8 K	0.07688
380.9 K	0.1162
385.2 K	0.1594
386.2 K	0.1701

O=C(O)c1ccccc1I [2-iodobenzoic acid]
Settings	Molar enthalpy of transition or fusion [kcal/mol]	Normal melting temperature [°C]
[1]	6.6	–
[2]	–	161.4

[2]
Settings	vapor or sublimation pressure
362.4 K	0.00113 kPa
367.6 K	0.00188 kPa
376.2 K	0.00432 kPa
381.9 K	0.00744 kPa
386.9 K	0.01099 kPa
393.2 K	0.02004 kPa and 0.01875 kPa
397.2 K	0.02759 kPa
399.2 K	0.03193 kPa
403.2 K	0.0431 kPa and 0.04492 kPa
407.3 K	0.06078 kPa
411.5 K	0.08737 kPa
